{
  "source": "patent US12559529B2",
  "about": "“NPY2 receptor agonists” (Boehringer Ingelheim International GmbH, priority 2019, dated 2026)",
  "note": "pKi: −log10 of the molar value. *1 amine or outer side, *2 acyl side, *3 side chain or, on linkers, in order; H or OH if unused. Where a SMILES comes first, the peptide text is derived from it. Side-chain parts run from the residue outwards. The star is where a group is joined. C18 diacid = O=C(O)CCCCCCCCCCCCCCCCC(=O)*; γGlu = O=C(O)[C@H](CCC(=O)[*:2])N[*:1]; Isovaleryl = CC(C)CC(=O)*; AEEA = NCCOCCOCC(=O)O",
  "data": [
    {"target": "T1, Human Neuropeptide Y2 Receptor (Homo sapiens, UniProt P49146)", "T1 construct": "purchased CHEMICON HTS066M", "T1 sequence (P49146 1-381)": "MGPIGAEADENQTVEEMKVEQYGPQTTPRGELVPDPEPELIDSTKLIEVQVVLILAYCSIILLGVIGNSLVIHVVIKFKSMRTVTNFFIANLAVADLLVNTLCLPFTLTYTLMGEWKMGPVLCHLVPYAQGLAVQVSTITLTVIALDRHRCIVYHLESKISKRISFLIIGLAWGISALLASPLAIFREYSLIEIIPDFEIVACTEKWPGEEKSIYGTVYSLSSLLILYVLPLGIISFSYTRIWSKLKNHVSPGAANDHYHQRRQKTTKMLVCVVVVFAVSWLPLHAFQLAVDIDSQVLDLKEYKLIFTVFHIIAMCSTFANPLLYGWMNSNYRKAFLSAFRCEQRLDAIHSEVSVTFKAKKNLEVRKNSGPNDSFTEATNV", "experiment": "Radioligand binding competition assay (RLB)", "settings": "Table 3; human 125I-PYY (1-36) 0.02 nM, Y2 receptor membranes; read-out: Ki", "method": "The filtration RLB assay was carried out in 96-well plates in a final volume of 100 μl per well. Freeze-dried test peptides were dissolved in 100% dimethyl sulfoxide (DMSO) to stock solutions of 1 mM and serial dilutions were performed in assay buffer (50 mM HEPES, 5 mM MgCl2, 1 mM CaCl2), pH 7.4) containing 0.2% ovalbumin. […] Next, 80 μL membranes (HTS066M, ChemiSCREEN™ Human Neuropeptide Y2 Receptor Membrane Preparation, CHEMICON) were added to each well to give a final protein concentration of 0.5 μg/well. The plates were sealed and incubated at room temperature for 2 hours in a plate shaker set at 400 rpm. The incubation was stopped by vacuum filtration onto 0.5% poly-ethylene amine (PEI) presoaked GF/C filters using a 96-well FilterMate™ harvester (Perkin Elmer) followed by four washes with 300 μl/well ice-cold wash buffer (50 mM HEPES, 500 mM NaCl, pH7.4). Filter plates were then dried for 60 min at room temperature and the bottom of the plates was sealed with backing tape UniFilter-96. Finally, 50 μl/well scintillation counter cocktail (Microscint20, Packard) was added and the radioactivity was counted in the Packard TopCount NXT scintillation counter. IC50 values (the half maximal inhibitory concentration of the agonist) were calculated by nonlinear regression analysis of sigmoidal dose-response curves.", "values": [
      {"smiles": "CC(C)CC(=O)N[C@@H](C)C(=O)N1CCC[C@H]1C(=O)N[C@@H](CCC(=O)O)C(=O)N[C@@H](CCCCNC(=O)COCCOCCNC(=O)COCCOCCNC(=O)CC[C@H](NC(=O)CCCCCCCCCCCCCCCCC(=O)O)C(=O)O)C(=O)N1CCC[C@H]1C(=O)N[C@@H](CCC(=O)O)C(=O)N[C@@H](CCC(=O)O)C(=O)N[C@@H](CC(=O)O)C(=O)N[C@@H](C)C(=O)N[C@@H](C)C(=O)N1CCC[C@H]1C(=O)N[C@@H](CCC(=O)O)C(=O)N[C@@H](CCC(=O)O)C(=O)N[C@@H](CC(C)C)C(=O)N[C@@H](CCC(N)=O)C(=O)N[C@@H](CCC(N)=O)C(=O)N[C@@H](Cc1ccc(O)cc1)C(=O)N[C@@H](Cc1ccc(O)cc1)C(=O)N[C@H](C(=O)N[C@@H](CO)C(=O)N[C@@H](CC(C)C)C(=O)N[C@@H](CCCNC(=N)N)C(=O)N[C@@H](Cc1c[nH]cn1)C(=O)N[C@@H](Cc1ccc(O)cc1)C(=O)N[C@@H](Cc1ccc(O)cc1)C(=O)N[C@@H](CC(N)=O)C(=O)N[C@@H](Cc1c[nH]c2ccccc12)C(=O)N[C@@H](CC(C)C)C(=O)N[C@H](C(=O)N[C@@H](CCCNC(=N)N)C(=O)N[C@@H](CCC(N)=O)C(=O)N[C@@H](CCCNC(=N)N)C(=O)N[C@@H](Cc1ccc(O)cc1)C(N)=O)[C@@H](C)O)C(C)C", "note": "[Compound 13, N{alpha-4}-(3-methylbutanoyl)-N{epsilon-7}-[2-(2-{2-[2-(2-{2-[(4S)-4-carboxy-4-(17-carboxyheptadecanamido)butanamido]ethoxy}ethoxy)acetamido]ethoxy}ethoxy)acetamido]-[4A,7K,9E,13A,18Q,19Q,22V,28Y,30W,31L]hPYY (4-36)]", "pKi": 8.89},
      {"smiles": "CC[C@H](C)[C@H](NC(=O)[C@H](CCC(=O)O)NC(=O)[C@H](CCC(=O)O)NC(=O)[C@@H]1CCCN1C(=O)[C@H](CO)NC(=O)[C@H](C)NC(=O)[C@H](CC(=O)O)NC(=O)[C@H](CCC(=O)O)NC(=O)[C@H](CCC(=O)O)NC(=O)[C@@H]1CCCN1C(=O)[C@H](CCCCNC(=O)COCCOCCNC(=O)COCCOCCNC(=O)CC[C@H](NC(=O)CCCCCCCCCCCCCCCCC(=O)O)C(=O)O)NC(=O)[C@H](CCC(=O)O)NC(=O)[C@@H]1CCCN1C(=O)[C@H](C)NC(=O)CC(C)C)C(=O)N[C@@H](CCC(N)=O)C(=O)N[C@@H](CCCNC(=N)N)C(=O)N[C@@H](Cc1ccc(O)cc1)C(=O)N[C@@H](CCC(=O)O)C(=O)N[C@H](C(=O)N[C@@H](CO)C(=O)N[C@@H](CC(C)C)C(=O)N[C@@H](CCCNC(=N)N)C(=O)N[C@@H](Cc1c[nH]cn1)C(=O)N[C@@H](Cc1ccc(O)cc1)C(=O)N[C@@H](Cc1ccc(O)cc1)C(=O)N[C@@H](CC(N)=O)C(=O)N[C@@H](Cc1c[nH]c2ccccc12)C(=O)N[C@@H](CC(C)C)C(=O)N[C@H](C(=O)N[C@@H](CCCNC(=N)N)C(=O)N[C@@H](CCC(N)=O)C(=O)N[C@@H](CCCNC(=N)N)C(=O)N[C@@H](Cc1ccc(O)cc1)C(N)=O)[C@@H](C)O)C(C)C", "note": "[Compound 15, N{alpha-4}-(3-methylbutanoyl)-N{epsilon-7}-[2-(2-{2-[2-(2-{2-[(4S)-4-carboxy-4-(17-carboxyheptadecanamido)butanamido]ethoxy}ethoxy)acetamido]ethoxy}ethoxy)acetamido]-[4A,7K,9E,17I,18Q,21E,22V,28Y,30W,31L]hPYY (4-36)]", "pKi": 8.54},
      {"smiles": "CC(C)CC(=O)N[C@@H](C)C(=O)N1CCC[C@H]1C(=O)N[C@@H](CCC(=O)O)C(=O)N[C@@H](CCCCNC(=O)COCCOCCNC(=O)COCCOCCNC(=O)CC[C@H](NC(=O)CCCCCCCCCCCCCCCCC(=O)O)C(=O)O)C(=O)N1CCC[C@H]1C(=O)N[C@@H](CCC(=O)O)C(=O)N[C@@H](CCC(=O)O)C(=O)N[C@@H](CC(=O)O)C(=O)N[C@@H](C)C(=O)N[C@@H](CO)C(=O)N1CCC[C@H]1C(=O)N[C@@H](C)C(=O)N[C@@H](CCC(=O)O)C(=O)N[C@@H](CC(C)C)C(=O)N[C@@H](CCC(N)=O)C(=O)N[C@@H](CCCNC(=N)N)C(=O)N[C@@H](Cc1ccc(O)cc1)C(=O)N[C@@H](Cc1ccc(O)cc1)C(=O)N[C@H](C(=O)N[C@@H](CO)C(=O)N[C@@H](CC(C)C)C(=O)N[C@@H](CCCNC(=N)N)C(=O)N[C@@H](Cc1c[nH]cn1)C(=O)N[C@@H](Cc1ccc(O)cc1)C(=O)N[C@@H](Cc1ccc(O)cc1)C(=O)N[C@@H](CC(N)=O)C(=O)N[C@@H](Cc1c[nH]c2ccccc12)C(=O)N[C@@H](CC(C)C)C(=O)N[C@H](C(=O)N[C@@H](CCCNC(=N)N)C(=O)N[C@@H](CCC(N)=O)C(=O)N[C@@H](CCCNC(=N)N)C(=O)N[C@@H](Cc1ccc(O)cc1)C(N)=O)[C@@H](C)O)C(C)C", "note": "[Compound 17, N{alpha-4}-(3-methylbutanoyl)-N{epsilon-7}-[2-(2-{2-[2-(2-{2-[(4S)-4-carboxy-4-(17-carboxyheptadecanamido)butanamido]ethoxy}ethoxy)acetamido]ethoxy}ethoxy)acetamido]-[4A,7K,9E,15A,18Q,22V,28Y,30W,31L]hPYY (4-36)]", "pKi": 9.03},
      {"smiles": "CC(C)CC(=O)N[C@@H](C)C(=O)N1CCC[C@H]1C(=O)N[C@@H](CCC(=O)O)C(=O)N[C@@H](CCCCNC(=O)COCCOCCNC(=O)COCCOCCNC(=O)CC[C@H](NC(=O)CCCCCCCCCCCCCCCCC(=O)O)C(=O)O)C(=O)N1CCC[C@H]1C(=O)N[C@@H](CCC(=O)O)C(=O)N[C@@H](C)C(=O)N[C@@H](CC(=O)O)C(=O)N[C@@H](C)C(=O)N[C@@H](CO)C(=O)N1CCC[C@H]1C(=O)N[C@@H](CCC(=O)O)C(=O)N[C@@H](CCC(=O)O)C(=O)N[C@@H](CC(C)C)C(=O)N[C@@H](CCC(N)=O)C(=O)N[C@@H](CCC(N)=O)C(=O)N[C@@H](Cc1ccc(O)cc1)C(=O)N[C@@H](Cc1ccc(O)cc1)C(=O)N[C@H](C(=O)N[C@@H](CO)C(=O)N[C@@H](CC(C)C)C(=O)N[C@@H](CCCNC(=N)N)C(=O)N[C@@H](Cc1c[nH]cn1)C(=O)N[C@@H](Cc1ccc(O)cc1)C(=O)N[C@@H](Cc1ccc(O)cc1)C(=O)N[C@@H](CC(N)=O)C(=O)N[C@@H](Cc1c[nH]c2ccccc12)C(=O)N[C@@H](CC(C)C)C(=O)N[C@H](C(=O)N[C@@H](CCCNC(=N)N)C(=O)N[C@@H](CCC(N)=O)C(=O)N[C@@H](CCCNC(=N)N)C(=O)N[C@@H](Cc1ccc(O)cc1)C(N)=O)[C@@H](C)O)C(C)C", "note": "[Compound 19, N{alpha-4}-(3-methylbutanoyl)-N{epsilon-7}-[2-(2-{2-[2-(2-{2-[(4S)-4-carboxy-4-(17-carboxyheptadecanamido)butanamido]ethoxy}ethoxy)acetamido]ethoxy}ethoxy)acetamido]-[4A,7K,9E,10A,18Q,19Q,22V,28Y,30W,31L]hPYY (4-36)] (Isovaleryl-APEK([AEEA-AEEA-γGlu-C18 diacid])PEADASPEELQQYYVSLRHYYNWLTRQRY-NH2)", "pKi": 9.41},
      {"smiles": "CC(C)CC(=O)N[C@@H](C)C(=O)N1CCC[C@H]1C(=O)N[C@@H](CCC(=O)O)C(=O)N[C@@H](CCCCNC(=O)COCCOCCNC(=O)COCCOCCNC(=O)CC[C@H](NC(=O)CCCCCCCCCCCCCCCCC(=O)O)C(=O)O)C(=O)N1CCC[C@H]1C(=O)N[C@@H](CCC(=O)O)C(=O)N[C@@H](CCC(=O)O)C(=O)N[C@@H](CC(=O)O)C(=O)N[C@@H](C)C(=O)N[C@@H](C)C(=O)N1CCC[C@H]1C(=O)N[C@@H](CCC(=O)O)C(=O)N[C@@H](CCC(=O)O)C(=O)N[C@@H](CC(C)C)C(=O)N[C@@H](CCC(N)=O)C(=O)N[C@@H](CCCNC(=N)N)C(=O)N[C@@H](Cc1ccc(O)cc1)C(=O)N[C@@H](Cc1ccc(O)cc1)C(=O)N[C@H](C(=O)N[C@@H](CCC(=O)O)C(=O)N[C@@H](CC(C)C)C(=O)N[C@@H](CCCNC(=N)N)C(=O)N[C@@H](Cc1c[nH]cn1)C(=O)N[C@@H](Cc1ccc(O)cc1)C(=O)N[C@@H](Cc1ccc(O)cc1)C(=O)N[C@@H](CC(N)=O)C(=O)N[C@@H](Cc1c[nH]c2ccccc12)C(=O)N[C@@H](CC(C)C)C(=O)N[C@H](C(=O)N[C@@H](CCCNC(=N)N)C(=O)N[C@@H](CCC(N)=O)C(=O)N[C@@H](CCCNC(=N)N)C(=O)N[C@@H](Cc1ccc(O)cc1)C(N)=O)[C@@H](C)O)C(C)C", "note": "[Compound 20, N{alpha-4}-(3-methylbutanoyl)-N{epsilon-7}-[2-(2-{2-[2-(2-{2-[(4S)-4-carboxy-4-(17-carboxyheptadecanamido)butanamido]ethoxy}ethoxy)acetamido]ethoxy}ethoxy)acetamido]-[4A,7K,9E,13A,18Q,22V,23E,28Y,30W,31L]hPYY (4-36)]", "pKi": 8.59}
    ]}
  ]
}
